Read-outs that look alike come from different tables or passages of the source.
Tests used:
[1] = Phase 1 Part A proton pump inhibitor (rabeprazole) effect on single-dose pharmacokinetics; format: in vivo, human; details: for AUC0-t (norm) / AUC0-∞ (norm) / CL/F / CL/F(norm) / Cmax (norm) / λZ / % AUCextrap / AUC(0-inf) / AUC(0-t) / Cmax / half-life / Tmax / Vd/F: +20 mg Rabeprazole QD x 3; for % AUCextrap: arithmetic mean; for AUC(0-inf) / AUC(0-t) / Cmax / half-life / Tmax / Vd/F: human, plasma, oral; for Tmax: median
From the text: This study was a randomized, blinded, placebo-controlled, ascending-dose study to evaluate the safety, tolerability, and pharmacokinetic (PK) of single (Part A) and multiple (Part B) doses of Compound I in healthy subjects. In addition, the effects of a standard high-fat breakfast, standard low-fat breakfast, and pretreatment and co-administration of a proton pump inhibitor (PPI) on the tolerability and PK of a single dose of Compound I were investigated in 2 groups in Part A. All subjects received their full dose of Compound I, administered as the appropriate number of either 25 or 200 mg tablets. The high fat breakfast comprised the following: total energy: 895 kcal; total fat: 61 g; total protein: 41 g; total carbohydrate: 46 g. The low fat breakfast comprised the following: total energy: 611 kcal; total fat: 14.7 g; total protein: 20.3 g; total carbohydrate: 106.3 g.
For Group A4, doses (400 mg Compound I or placebo) during Treatment Period 1 were administered in a fasted state on the morning of Day 1. Doses in Treatment Period 2 were administered 30 minutes after starting, and within approximately 10 minutes of completing, a high-fat standard breakfast on the morning of Day 1. Doses during Treatment Period 3 were administered 30 minutes after starting, and within approximately 10 minutes of completing a low-fat standard meal on the morning of Day 1. Doses during Treatment Period 4 were administered on Day 1 after an overnight fast and following administration of a PPI (rabeprazole 20 mg) for 3 days (given as 3 daily [QD] doses, with the final PPI dose at 2 hours prior to study drug administration on Day 1). Subjects in Group A4 received the same Compound I or placebo treatment in all treatment periods, such that each subject received up to 4 single doses of Compound I or placebo.
For Group A5, doses (800 mg Compound I or placebo) during Treatment Period 1 were administered in a fasted state on the morning of Day 1, doses during Treatment Period 2 were administered 30 minutes after starting a low-fat standard breakfast on the morning of Day 1, and doses during Treatment Period 3 were administered on Day 1 after a low-fat meal and following administration of a PPI (rabeprazole 20 mg) for 3 days (given as 3 QD doses, with the final PPI dose at 2 hours prior to study drug administration on Day 1). Subjects in Group A5 received the same Compound I or placebo treatment in all treatment periods, such that each subject received up to 3 single doses of Compound I or placebo.
In Part A, all doses in Treatment Period 1 were administered after an overnight fast of at least 8 hours. For the A4 cohort, in Treatment Periods 2 and 3, doses were administered 30 minutes after starting and approximately 10 minutes after completing a high- or low-fat breakfast. In Treatment Period 4, the dose was administered after an overnight fast and following administration of a PPI (PPI was comprised of 3 doses of rabeprazole 20 mg, starting on Day −2 and with the final dose 2 hours before Compound I administration on Day 1). For Group A5, doses during Treatment Period 2 were administered 30 minutes after starting and approximately 10 minutes after completing a low-fat standard breakfast on the morning of Day 1, and doses during Treatment Period 3 were administered on Day 1 after a low-fat meal and following administration of a PPI for 3 days (given as 3 QD doses, with the final PPI dose at 2 hours prior to study drug administration on Day 1).

[2] = Serum creatinine (Scr) change from baseline, SAD study (Part A); format: in vivo, human; details: for Number of subjects with change in Scr <0.3 mg/dL from baseline / Number of subjects with change in Scr ≥0.3 mg/dL from baseline / Number of subjects with percent change in Scr <30% from baseline / Number of subjects with percent change in Scr ≥30% from baseline: SAD
Description: In addition to the measurement of various PK parameters in both parts of the study, the changes in the subjects' serum creatinine levels were also evaluated in this study. Tables 6A and 6B summarize the change in level and percent change in serum creatinine from averaged screening and pre-dosing values for the subjects in SAD study in each treatment group, as applicable. Tables 7A and 7B summarize the change in level and percent change in scrum creatinine from averaged screening and pre-dosing values for the subjects in MAD study. […] In Part B of the study, 2 subjects (275 mg BID) experienced clinically significant TEAEs of increased creatinine on day 5. The mean change in serum creatinine from a combined screening and pre-dose baseline in the MAD part of the study is illustrated in FIG. 1. In addition, the mean change in creatinine level from combined screening and pre-dose level in the MAD part of the study is illustrated in FIG. 2.

[3] = 400 mg Fasted + 20 mg Rabeprazole QD x 3 (Test) vs 400 mg Fasted (Reference)
[4] = 400 mg single dose (A4), Fasted
[5] = 800 mg Fed, Low-fat + 20 mg Rabeprazole QD x 3 (Test) vs 800 mg Fed, Low-fat (Reference)
[6] = 800 mg single dose (A5), Fed, Low-fat
[7] = pretreatment and co-administration of 20 mg rabeprazole (QD×3), low-fat fed state, compared to Compound I alone

For `Cn1cc(-c2cn(-c3ccc(OC(F)(F)F)cc3)c(=O)c3ncn(C)c23)cn1` [Compound I], the “Test/Reference ratio of LS means, AUC0-t” value [1, 3] was 86.4%, the “Test/Reference ratio of LS means, AUC0-∞” value [1, 3] was 87.2% and the “Test/Reference ratio of LS means, Cmax” value [1, 3] was 83.6%. For the same compound, the “AUC0-t (norm)” value [1, 4] was 8130 (hr*ng/mL)/(mg/kg), the “AUC0-∞ (norm)” value [1, 4] was 8410 (hr*ng/mL)/(mg/kg) and the CL/F [1, 4] was 139 mL/min. For the same compound, the “CL/F(norm)” value [1, 4] was 1.98 (mL/min)/kg, the “Cmax (norm)” value [1, 4] was 660 ng/mL/mg/kg and the λZ [1, 4] was 0.0603 h⁻¹. For the same compound, the “% AUCextrap” value [1, 4] was 3.25%, the “Test/Reference ratio of LS means, AUC0-t” value [1, 5] was 76.5% and the “Test/Reference ratio of LS means, AUC0-∞” value [1, 5] was 77.2%. For the same compound, the “Test/Reference ratio of LS means, Cmax” value [1, 5] was 75.0%, the “AUC0-t (norm)” value [1, 6] was 11000 (hr*ng/mL)/(mg/kg) and the “AUC0-∞ (norm)” value [1, 6] was 11100 (hr*ng/mL)/(mg/kg). For the same compound, the CL/F [1, 6] was 108 mL/min, the “CL/F(norm)” value [1, 6] was 1.50 (mL/min)/kg and the “Cmax (norm)” value [1, 6] was 900 ng/mL/mg/kg. The λZ [1, 6] was 0.0666 h⁻¹, the “% AUCextrap” value [1, 6] was 1.27% and the AUC(0-inf) [1, 4] was 48100 ng·h/mL. It also gave an AUC(0-t) [1, 4] of 46500 ng·h/mL, a Cmax [1, 4] of 3770 ng/mL and a half-life [1, 4] of 10.5 h. The Tmax [1, 4] was 2.5 h, the Vd/F ([1]; 400 mg single dose (A4), Fasted, read-out: Vz/F) was 138 L and the Vd/F ([1]; 400 mg single dose (A4), Fasted, read-out: Vz/F(norm)) was 1.97 L/kg. The AUC(0-inf) [1, 6] was 124000 ng·h/mL, the AUC(0-t) [1, 6] was 122000 ng·h/mL and the Cmax [1, 6] was 10000 ng/mL. The half-life [1, 6] was 8.92 h, the Tmax [1, 6] was 3 h and the Vd/F ([1]; 800 mg single dose (A5), Fed, Low-fat, read-out: Vz/F) was 97.2 L. The Vd/F ([1]; 800 mg single dose (A5), Fed, Low-fat, read-out: Vz/F(norm)) was 1.35 L/kg, the “Decrease in AUC0-t” value [1, 7] was 23.5% and the “Decrease in AUC0-∞” value [1, 7] was 22.8%. The “Decrease in Cmax” value [1, 7] was 25.0%, the “Exposures with increases over the upper limit of normal (ULN) in serum creatinine” value ([2]; Part A (SAD), exposures of doses of 200 mg or more) was “about 21%” and the “Number of subjects with change in Scr <0.3 mg/dL from baseline” value ([2]; 25 mg) was 6. For the same compound, the “Number of subjects with change in Scr ≥0.3 mg/dL from baseline” value ([2]; 25 mg) was 0, the “Number of subjects with percent change in Scr <30% from baseline” value ([2]; 25 mg) was 6 and the “Number of subjects with percent change in Scr ≥30% from baseline” value ([2]; 25 mg) was 0. For the same compound, the “Number of subjects with change in Scr <0.3 mg/dL from baseline” value ([2]; 75 mg) was 6, the “Number of subjects with change in Scr ≥0.3 mg/dL from baseline” value ([2]; 75 mg) was 0 and the “Number of subjects with percent change in Scr <30% from baseline” value ([2]; 75 mg) was 6. For the same compound, the “Number of subjects with percent change in Scr ≥30% from baseline” value ([2]; 75 mg) was 0, the “Number of subjects with change in Scr <0.3 mg/dL from baseline” value ([2]; 200 mg) was 6 and the “Number of subjects with change in Scr ≥0.3 mg/dL from baseline” value ([2]; 200 mg) was 0. For the same compound, the “Number of subjects with percent change in Scr <30% from baseline” value ([2]; 200 mg) was 6, the “Number of subjects with percent change in Scr ≥30% from baseline” value ([2]; 200 mg) was 0 and the “Number of subjects with change in Scr <0.3 mg/dL from baseline” value ([2]; 400 mg Fasted) was 10. The “Number of subjects with change in Scr ≥0.3 mg/dL from baseline” value ([2]; 400 mg Fasted) was 2, the “Number of subjects with percent change in Scr <30% from baseline” value ([2]; 400 mg Fasted) was 9 and the “Number of subjects with percent change in Scr ≥30% from baseline” value ([2]; 400 mg Fasted) was 3. For the same compound, the “Number of subjects with change in Scr <0.3 mg/dL from baseline” value ([2]; 800 mg Fasted) was 5, the “Number of subjects with change in Scr ≥0.3 mg/dL from baseline” value ([2]; 800 mg Fasted) was 1 and the “Number of subjects with percent change in Scr <30% from baseline” value ([2]; 800 mg Fasted) was 4. The “Number of subjects with percent change in Scr ≥30% from baseline” value ([2]; 800 mg Fasted) was 2, the “Number of subjects with change in Scr <0.3 mg/dL from baseline” value ([2]; 1600 mg) was 6 and the “Number of subjects with change in Scr ≥0.3 mg/dL from baseline” value ([2]; 1600 mg) was 0. For the same compound, the “Number of subjects with percent change in Scr <30% from baseline” value ([2]; 1600 mg) was 6 and the “Number of subjects with percent change in Scr ≥30% from baseline” value ([2]; 1600 mg) was 0.
